Test results published in PMC4186413, “Identification of metabolic pathways and enzyme systems involved in the in vitro human hepatic metabolism of dronedarone, a potent new oral antiarrhythmic drug” (Pharmacology Research & Perspectives, 2014).

Key:
[1] = tested on: cryopreserved human hepatocytes in primary culture; assay: Unchanged drug disappearance / intrinsic metabolic clearance in primary cultures of cryopreserved human hepatocytes; type: in vitro ADME; conditions: for In vitro intrinsic hepatic clearance, Mean ± SD: mean of four hepatocyte preparations
Method: Cryopreserved human hepatocytes were plated on 48-well collagen-coated plastic plates in a chemically defined medium adapted from Isom and Georgoff ([1984]), consisting of a 50/50 (v/v) mixture of Ham F12/Williams E medium supplemented with 10% decomplemented fetal calf serum, 10 mg/L insulin, 0.8 mg/L glucagon and antibiotics (100 IU penicillin and 100 μg/mL streptomycin). After 4–6 h at 37°C in a 5% CO2 and 100% humidified atmosphere, period during which hepatocytes attached to the collagen-matrix, the plating medium was removed and replaced by the same serum-free culture medium supplemented with HEPES (3.6 g/L), ethanolamine (4 mg/L), transferrin (10 mg/L), linoleic acid albumin (1.4 mg/L), glucose (252 mg/L), sodium pyruvate (44 mg/L), ascorbic acid (50 mg/L), arginine (104 mg/L), and L-glutamine (0.7 g/L).
Experiments were performed in 48-well plastic plates coated with rat tail Collagen type I. Plates were seeded with 0.16 × 10^5 hepatocytes per well in a final volume of 0.2 mL and incubated at 37°C under a 95% humidified air and 5% CO2 atmosphere. After 3 h during which cells were allowed to attach, the medium was renewed with 0.1 mL serum-free medium. Then, the investigated drug or metabolic probe(s) were added directly to the incubation medium in the absence or the presence of inhibitors such as either ketoconazole as a specific and potent CYP3A inhibitor (3 μmol/L final concentration), clorgyline (0.25 μmol/L final concentration) as a potent MAO-A inhibitor or ABT as a potent but nonselective CYP isoforms inhibitor (1 mmol/L final concentration) (Fabre et al. [1988]; Bourrié et al. [1996]; Klieber et al. [2008]). Regardless of the final concentration investigated, the final solvent (DMSO) concentration never exceeded 0.2% (v/v).
To determine the metabolism of the different compounds (metabolic probes, dronedarone, N-debutyl-dronedarone, propanoic acid-dronedarone, phenol-dronedarone, and C-dealkyl-dronedarone), kinetic studies were performed over 0–24 h. For each time point, 0.1 mL of acetonitrile was added to the specific well for protein precipitation, and both extracellular medium and the cell fraction were scraped together. Cell extracts were transferred to a glass tube and stored at −20°C until analysis. Before analysis, cell homogenates were sonicated for a few seconds, homogenized and centrifuged at 6000 g for 10 min. Supernatant fluids were then analyzed for the different drugs and their specific metabolites.
LC/MS-MS analysis was performed using an Acquity UPLC System I-Class equipped with a Waters Acquity UPLC BEH C18 column (2.1 mm i.d. × 100 mm length, 1.7 μm particle size) coupled to a Xevo TQS mass spectrometer (all from Waters, Milford, MA) used in electrospray ion positive mode.
In human hepatocytes, the intrinsic in vitro metabolic clearances (Clint) were calculated using WinNonLin PK analysis software version 5.2. All disappearance kinetics data were fitted with a model using the following equation: [drawing 2] where ke is the elimination rate constant expressed in h^−1, and V is the incubation volume expressed in mL normalized to 10^6 hepatocytes. The equation was applied to the initial (linear) part of the concentration–time curve.
The kinetics of drug disappearance were investigated using four different cryopreserved human hepatocyte preparations in primary cultures following incubation with either dronedarone or its metabolites at a concentration of 5 μmol/L. Incubations were performed either in the absence, that is control conditions, or in the presence of enzyme system inhibitors such as 3 μmol/L ketoconazole (specific and potent inhibitor of CYP3A4/5), 1 mmol/L ABT (a potent and […] inhibitor of total CYPs), or 0.25 μmol/L clorgyline (a potent MAO-A inhibitor) (Dorris [1982]). Kinetic studies were performed over 24 h.

[2] = tested on: MAO-A and MAO-B; assay: Oxidation by recombinant human MAOs; type: in vitro ADME; conditions: 1 mg/mL, 5 μmol/L, 30 min, no cofactor
Text: Recombinant human CYPs (Supersomes™; BD Gentes, Woburn, MA: CYP1A1, CYP1A2, CYP2A6, CYP2B6, CYP2C8, CYP2C9, CYP2C18, CYP2C19, CYP2D6, CYP2E1, CYP3A4 and CYP3A5), FMOs (Supersomes™: FMO1, FMO3, FMO5), MAOs (Supersomes™: MAO-A and MAO-B), and UGTs (Supersomes™: UGT1A1, UGT1A3, UGT1A4, UGT1A6, UGT1A7, UGT1A8, UGT1A9, UGT1A10, UGT2B4, UGT2B7, UGT2B15, and UGT2B17) expressed in baculovirus-infected insect cells and control microsomes from insect cells infected with wild-type baculovirus were all obtained from BD Gentest (Woburn, MA).
For oxidative pathways, the assay mixture was composed of human liver microsomes (1 mg·m·L^−1) or microsomes of baculovirus-infected cells expressing human enzymes (100 pmol·mL^−1 for CYPs and 1 mg·mL^−1 for FMOs and MAOs), nicotinamide adenine dinucleotide phosphate reduced form (NADPH) (1 mmol/L), 100 mmol/L potassium phosphate (pH 7.4), and 5 μmol/L of the investigated compound dissolved in DMSO in a final volume of 500 μL.
The final concentration of DMSO in the reaction mixture was less than 1% (v/v). Initial rate conditions with respect to time and protein concentration for both the disappearance of unchanged drug and the formation of respective metabolites were established in preliminary studies. The enzyme reaction was initiated by addition of NADPH (10 mmol/L aqueous solution) to achieve a final concentration of 1 mmol/L for oxidative CYP- and FMO-dependent reactions or by the drug for MAO-dependent reactions, incubated at 37°C and stopped after 0–30 min by addition of one volume of ice-cold acetonitrile.
In human liver microsomes and recombinant isoforms, the percentage of metabolism was determined on the basis of unchanged drug disappearance, using the following equation [drawing 1] where UDt = 30 min represents the unchanged drug peak area after a 30-min incubation period and UDt = 0, the unchanged drug peak area at t = 0.
To identify the specific isoforms that are capable of oxidizing dronedarone and its metabolites, assays were performed using c-DNA-expressed isoforms belonging to CYP- (CYP1A1, -1A2, -2A6, -2B6, -C8, -2C9, -2C18, -2C19, -2D6, -2E1, -3A4, and -3A5), FMO- (FMO-1, -3, and -5) and MAO- (MAO-A and MAO-B) families.
Figure 5 Contribution of individual CYPs, FMOs and MAOs to the oxidation of dronedarone and its metabolites. […] Unchanged drugs were quantified by LC/MS-MS relative to the synthetic references as described in Materials and Methods. Data are expressed as the percentage of oxidation.

[3] = hepatocyte preparation BD-91, 5 μmol/L
[4] = hepatocyte preparation BD-296, 5 μmol/L
[5] = hepatocyte preparation HU-1359, 5 μmol/L
[6] = hepatocyte preparation IVT-IBG, 5 μmol/L

Structure (SMILES) | In vitro intrinsic hepatic clearance [1, 3] | In vitro intrinsic hepatic clearance [1, 4] | In vitro intrinsic hepatic clearance [1, 5] | In vitro intrinsic hepatic clearance [1, 6] | In vitro intrinsic hepatic clearance, Mean ± SD ([1]; 5 μmol/L) | Oxidation by MAOs [2] | Mean maximal concentration of metabolite formed ([1]; hepatocytes incubated with 5 μmol/L dronedarone, control conditions without inhibitors) | Drug metabolized within 6 h of incubation ([1]; 5 μmol/L, control conditions) | In vitro intrinsic hepatic clearance, Mean ± SD ([1]; 5 μmol/L, listed as phenol-dronedarone)
CCCCN(CCCC)CCCOc1ccc(C(=O)O)cc1 [C-dealkyl-dronedarone] | 0.003 mL·h^−1·10^6 cells | 0.002 mL·h^−1·10^6 cells | 0.004 mL·h^−1·10^6 cells | 0.003 mL·h^−1·10^6 cells | 0.003 ± 0.001 mL·h^−1·10^6 cells | not metabolized | – | – | –
CCCCc1oc2ccc(NS(C)(=O)=O)cc2c1C(=O)c1ccc(OCCC(=O)O)cc1 [Propanoic acid-dronedarone] | 0.06 mL·h^−1·10^6 cells | 0.17 mL·h^−1·10^6 cells | 0.20 mL·h^−1·10^6 cells | 0.14 mL·h^−1·10^6 cells | 0.14 ± 0.05 mL·h^−1·10^6 cells | Neither other CYPs, nor FMOs and MAOs metabolized propanoic acid-dronedarone to any significant extent | – | – | –
CCCCNCCCOc1ccc(C(=O)c2c(CCCC)oc3ccc(NS(C)(=O)=O)cc23)cc1 [N-debutyl-dronedarone] | 0.18 mL·h^−1·10^6 cells | 0.10 mL·h^−1·10^6 cells | 0.10 mL·h^−1·10^6 cells | 0.08 mL·h^−1·10^6 cells | 0.13 ± 0.03 mL·h^−1·10^6 cells | – | around 0.6 μmol/L | – | –
CCCCc1oc2ccc(NS(C)(=O)=O)cc2c1C(=O)c1ccc(OCCCN(CCCC)CCCC)cc1.Cl [Dronedarone, N-(2-Butyl-3-(4-(3-(dibutylamino)propoxy)benzoyl)-5-benzofuranyl)methanesulfonamide, hydrochloride] | 0.49 mL·h^−1·10^6 cells | 0.58 mL·h^−1·10^6 cells | 0.14 mL·h^−1·10^6 cells | 0.10 mL·h^−1·10^6 cells | 0.33 ± 0.21 mL·h^−1·10^6 cells | not involved | – | more than 80% | –
CCCCc1oc2ccc(NS(C)(=O)=O)cc2c1C(=O)c1ccc(O)cc1 [Phenol-dronedarone] | 0.44 mL·h^−1·10^6 cells | 0.70 mL·h^−1·10^6 cells | 0.57 mL·h^−1·10^6 cells | 0.75 mL·h^−1·10^6 cells | 0.62 ± 0.12 mL·h^−1·10^6 cells | contributed to a very small extent | – | – | 0.61 ± 0.12 mL·h^−1·10^6 cells
